From US20260013442A1, “METHOD FOR VEGETATIVE PROPAGATION OF PLANTS” (LETAVIS AB, priority 2020, published 2026)

Tests used:
[1] = test system: cuttings from rose No. 1 (garden rose bush); experiment: Callus/root formation on cuttings from rose No. 1 in oxytocin solution; format: in vivo; details: for Grading of callus formation: grading 0-8
Experimental: (§1) Cuttings, about 7 cm long, from the top of a branch of two different roses (rose No. 1 and rose No. 2) and cut directly under a node were put into 100 ml Erlenmeyer flasks with concentrations of oxytocin from 0 to 10 μM (0, 0.5, 1, 2.5, 5 and 10 μM) in tap water. Two cuttings were added to each Erlenmeyer flask. Thereafter, the Erlenmeyer flasks were placed in a growing room under a light intensity of 800 μmol*m^−2*s^−1.
Cuttings in this experiment were taken from a garden rose bush. […] A grading of the effect of different oxytocin concentrations on the formation of callus from the cuttings can be seen in Table 1. Callus can easily be explained as an accumulation of cells that has not developed into any specific tissue, such as root tissues. Best coverage of callus on the cutting surface of the cuttings was obtained at a concentration of oxytocin of 2.5 μM (FIG. 1).

[2] = test system: cuttings from rose No. 2 (mini rose); experiment: Callus/root formation on cuttings from rose No. 2 in oxytocin solution; format: in vivo; details: for Grading of callus formation: grading 0-8
Experimental: as §1
Cuttings in this experiment was taken from the small rose bushes in pot bought in a flower shop (mini rose), and put into Erlenmeyer flasks. […] Best effect was obtained at 10 μM oxytocin, followed closely by 2.5 μM oxytocin.
Vigorous development of callus indicates high potential for root formation. To study this effect, the Erlenmeyer flasks with the cuttings from the experiment with rose No. 2 have been covered with aluminium foil.

[3] = test system: cut flowers of roses of the variety Furiosa; experiment: Root growth of stalks of cut flowers of the variety Furiosa; format: in vivo, rose
Experimental: Cut flowers of roses of the variety Furiosa, which had obtained at least 2 side shoots from the stalk, were put in water to allow the side shoots to continue to grow. When the side shoots had reached a length of about 5 cm, the stalk was cut by some mm under the lowest side shoot, which was also removed from the stalk. The stalks were then put into 100 ml Erlenmeyer flasks with either water alone or an oxytocin solution. The solution contained either 1, 4 or 8 μM oxytocin. The liquid in the Erlenmeyer flasks was darkened by coating the flasks with aluminium foil. The flasks were placed in daylight.

cuttings from hibiscuses = experiment: Effect of oxytocin on cuttings of hibiscus; format: in vivo; details: 90 days
Excerpt: […] Five cuttings per treatment were used.
The flasks were covered with aluminum foil and the flasks were kept at room temperature in a window.
The experiment was allowed to run for 90 days whereafter the development of calluses and roots was documented.

rose cuttings = experiment: Effect of different concentrations of oxytocin on cuttings of roses (58 days); format: in vivo; details: for Total No. roots: 4 E-flasks with 2 cuttings; for Number of cuttings with roots / Number of living cuttings / Per cutting No. roots / Per cutting Number of side shoots >10 mm / Per cutting mm root / Vitality: n = 8; for Vitality: grading 0-5
Experimental: On Feb. 11, 2020, cuttings from purchased pots with roses were put into 100 ml Erlenmeyer flasks (E-flasks) with a concentration of oxytocin from 0 to 50 μM (0, 0.5, 1, 5, 10, 20 and 50 μM). The experiment consisted of four E-flasks per concentration with two cuttings in each E-flask. The E-flasks were covered with aluminum foil and placed in a culture room. From day 45, measurements were made every 4-5 days. At day 58, the trial was interrupted.

[4] = test system: potato tubers of the summer variety Perlo; experiment: Potato tubers treated with oxytocin before pre-sprouting in sunlight; format: in vivo; details: nineteen days of pre-sprouting
Experimental: Potato tubers of the summer variety Perlo were pre-sprouting in sunlight after treatment with either tap water, 1 μM oxytocin or 10 μm oxytocin for 6 or 24 hours. For each treatment, 8 tubers were treated by placing them in plastic vessels and covered them with the respective test solution. After treatment, the tubers were pre-sprouted in sunlight at about 20° C. Nineteen days later, the number of sprouts were counted for each tuber and the length per sprout was measured.

[5] = 5 μM oxytocin, 31 days, 2 cuttings

oxytocin
Grading of callus formation ([1]; 0.5 μM oxytocin, 31 days, 2 cuttings): 6
Grading of callus formation ([1]; 1 μM oxytocin, 31 days, 2 cuttings): 4
Grading of callus formation ([1]; 2.5 μM oxytocin, 31 days, 2 cuttings): 7
small roots formed [1, 5]: one
Grading of callus formation [1, 5]: 6
length of root developed from callus ([1]; 5 μM oxytocin, one of the two cuttings): 2-3 mm
Grading of callus formation ([1]; 10 μM oxytocin, 31 days, 2 cuttings): 5
leaf aging ([1]; 5-10 μM oxytocin): inhibit leaf aging
concentration with best coverage of callus on the cutting surface ([1]; 31 days, tested 0-10 μM): 2.5 µM
Grading of callus formation ([2]; 0.5 μM oxytocin, 24 days, 2 cuttings): 2
root formation ([2]; 0.5 μM oxytocin, nineteen days after day 24, flasks covered with aluminium foil): roots had been formed in all treatments except in 0.5 μM oxytocin
Grading of callus formation ([2]; 1 μM oxytocin, 24 days, 2 cuttings): 3
Grading of callus formation ([2]; 2.5 μM oxytocin, 24 days, 2 cuttings): 6
Grading of callus formation ([2]; 5 μM oxytocin, 24 days, 2 cuttings): 1
cuttings showing root development ([2]; 5 μM oxytocin, nineteen days after day 24, 2 cuttings): one of the two cuttings
Grading of callus formation ([2]; 10 μM oxytocin, 24 days, 2 cuttings): 7
development of roots from cuttings ([2]; 1-10 μM oxytocin): stimulated the development of roots
root development ([2]; 2.5 and 10 μM oxytocin, nineteen days after day 24): Root development was best
leaf aging ([2]; 5-10 μM oxytocin): inhibit leaf aging
concentration with best effect on development of callus ([2]; 24 days, tested 0-10 μM): 10 µM
root quality of stalk ([3]; 1 μM oxytocin, one month after the 2.5 months): showed the best root
survival of stalks ([3]; 4 μM oxytocin, one month after the 2.5 months, secondary fungal growth): had died due to a secondary fungal growth
root formation on stalks ([3]; 1, 4 or 8 μM oxytocin, after about 2.5 months, untreated had died): obtained roots
root growth on stalks ([3]; 1 and 8 μM oxytocin, one month after the 2.5 months): roots had grown much longer
Number of cuttings that had developed calluses (cuttings from hibiscuses; 1 μM oxytocin, five cuttings): One
Number of cuttings that had developed a root (cuttings from hibiscuses; 5 μM oxytocin, five cuttings): one
Number of cuttings that had developed calluses (cuttings from hibiscuses; 5 μM oxytocin, five cuttings): One
root length (cuttings from hibiscuses; 5 μM oxytocin, one cutting): ~2 mm
Number of cuttings that had developed calluses (cuttings from hibiscuses; 10 μM oxytocin, five cuttings): two
Root length Mean length (rose cuttings; 0.5 μM oxytocin, 58 days): 13.3 mm
Total No. roots (rose cuttings; 0.5 μM oxytocin, 58 days): 26
Number of cuttings with roots (rose cuttings; 0.5 μM oxytocin, 58 days): 5
Number of living cuttings (rose cuttings; 0.5 μM oxytocin, 58 days): 7
Per cutting No. roots (rose cuttings; 0.5 μM oxytocin, 58 days): 3.3
Per cutting Number of side shoots >10 mm (rose cuttings; 0.5 μM oxytocin, 58 days): 0.4
Per cutting mm root (rose cuttings; 0.5 μM oxytocin, 58 days): 43 mm
Vitality (rose cuttings; 0.5 μM oxytocin, 58 days): 2.6
Root length Mean length (rose cuttings; 1 μM oxytocin, 58 days): 17.4 mm
Total No. roots (rose cuttings; 1 μM oxytocin, 58 days): 55
Number of cuttings with roots (rose cuttings; 1 μM oxytocin, 58 days): 6
Number of living cuttings (rose cuttings; 1 μM oxytocin, 58 days): 8
Per cutting No. roots (rose cuttings; 1 μM oxytocin, 58 days): 6.9
Per cutting Number of side shoots >10 mm (rose cuttings; 1 μM oxytocin, 58 days): 1
Per cutting mm root (rose cuttings; 1 μM oxytocin, 58 days): 119 mm
Vitality (rose cuttings; 1 μM oxytocin, 58 days): 3.5
time after which all cuttings had developed roots (rose cuttings; 5 μM oxytocin): 50 days
Root length Mean length (rose cuttings; 5 μM oxytocin, 58 days): 11.6 mm
Total No. roots (rose cuttings; 5 μM oxytocin, 58 days): 51
Number of cuttings with roots (rose cuttings; 5 μM oxytocin, 58 days): 7
Number of living cuttings (rose cuttings; 5 μM oxytocin, 58 days): 7
Per cutting No. roots (rose cuttings; 5 μM oxytocin, 58 days): 6.4
Per cutting Number of side shoots >10 mm (rose cuttings; 5 μM oxytocin, 58 days): 0.6
Per cutting mm root (rose cuttings; 5 μM oxytocin, 58 days): 76 mm
Vitality (rose cuttings; 5 μM oxytocin, 58 days): 2.5
cuttings that had developed roots (rose cuttings; 5 μM oxytocin, day 45): five out of seven
delay until all cuttings had roots, compared with 5 μM oxytocin (rose cuttings; 10 μM and 50 μM oxytocin): 4 to 8 days
Root length Mean length (rose cuttings; 10 μM oxytocin, 58 days): 11.4 mm
Total No. roots (rose cuttings; 10 μM oxytocin, 58 days): 46
Number of cuttings with roots (rose cuttings; 10 μM oxytocin, 58 days): 7
Number of living cuttings (rose cuttings; 10 μM oxytocin, 58 days): 7
Per cutting No. roots (rose cuttings; 10 μM oxytocin, 58 days): 5.8
Per cutting Number of side shoots >10 mm (rose cuttings; 10 μM oxytocin, 58 days): 0.5
Per cutting mm root (rose cuttings; 10 μM oxytocin, 58 days): 66 mm
Vitality (rose cuttings; 10 μM oxytocin, 58 days): 2.9
Root length Mean length (rose cuttings; 20 μM oxytocin, 58 days): 12.7 mm
Total No. roots (rose cuttings; 20 μM oxytocin, 58 days): 46
Number of cuttings with roots (rose cuttings; 20 μM oxytocin, 58 days): 5
Number of living cuttings (rose cuttings; 20 μM oxytocin, 58 days): 6
Per cutting No. roots (rose cuttings; 20 μM oxytocin, 58 days): 5.8
Per cutting Number of side shoots >10 mm (rose cuttings; 20 μM oxytocin, 58 days): 0.5
Per cutting mm root (rose cuttings; 20 μM oxytocin, 58 days): 72 mm
Vitality (rose cuttings; 20 μM oxytocin, 58 days): 2.3
Root length Mean length (rose cuttings; 50 μM oxytocin, 58 days): 10.0 mm
Total No. roots (rose cuttings; 50 μM oxytocin, 58 days): 52
Number of cuttings with roots (rose cuttings; 50 μM oxytocin, 58 days): 8
Number of living cuttings (rose cuttings; 50 μM oxytocin, 58 days): 8
Per cutting No. roots (rose cuttings; 50 μM oxytocin, 58 days): 6.5
Per cutting Number of side shoots >10 mm (rose cuttings; 50 μM oxytocin, 58 days): 0.4
Per cutting mm root (rose cuttings; 50 μM oxytocin, 58 days): 65 mm
Vitality (rose cuttings; 50 μM oxytocin, 58 days): 3.5
cuttings that had developed callus (rose cuttings; 50 μM oxytocin, day 45): all cuttings
cuttings that had calluses (rose cuttings; 1, 5 and 10 μM oxytocin, day 45): all but one of the living cuttings
concentration giving most roots and longest total length of roots per cutting (rose cuttings; 6 cuttings per concentration (FIG. 7)): 1 µM
concentration most potent for callus and roots at nodes higher up on the stem (rose cuttings; 58 days, tested 0-50 μM): 20 µM
total amount of roots formed, average over concentrations (rose cuttings; concentrations of 1 M and above, 58 days, compared to 30 at 0 μM): 50.5 mm
percentage increase of long sprouts (over 5 mm) compared to tap water for 6 hours ([4]; 1 μM oxytocin for 6 hours): 124%
percentage increase in number of shoots compared to tap water for 6 hours ([4]; 1 μM oxytocin for 24 hours): 34.6%
percentage increase of long sprouts (over 5 mm) compared to tap water for 6 hours ([4]; 1 μM oxytocin for 24 hours): 112.5%
percentage increase of long sprouts (over 5 mm) compared to tap water for 6 hours ([4]; 10 μM oxytocin for 6 hours): 100%
percentage increase in number of shoots compared to tap water for 6 hours ([4]; 10 μM oxytocin for 24 hours): 37.5%
